Test system: HEK293 cells comprising the pcDNA3-red-HCVIRES-gpt vector
Assay: Growth of HEK293 cells with the IRES-gpt construct versus control cells in 6-thioxanthine (OD 590 nm)
Format: cell-based
Conditions: 100 μM, up to 9 days, OD at days 2, 6 and 9, versus control cells
Procedure: FIG. 3 is a graphical representation showing the growth of HEK293 cells comprising a construct in which a gpt gene is placed under the control of a HCV IRES or control cells grown in the presence or absence of 6-thioxanthine (100 μM). The number of days of 6-thioxanthine treatment is indicated on the X-axis. The optical density at 590 nm of the tissue culture flask containing the cells is shown on the Y-axis. […] The OD590 of cells comprising the IRES-gpt construct grown in the absence of 6-thioxanthine are represented by solid squares and dashed line. The OD590 of cells comprising the IRES-gpt construct grown in the presence of 6-thioxanthine are represented by solid squares and solid line.
Cells were also screened to determine those capable of expressing gpt under the control of HCV IRES. Briefly, transfected cells or control cells were maintained either in the absence or presence of 6-thioxanthine (100 μM) for up to 9 days. To determine any change in cell number an optical density measurement was performed at 590 nm at days 2, 6 and 9 after the addition of 6-thioxanthine to the relevant cells.

O=c1[nH]c(=S)c2[nH]cnc2[nH]1 [6-thioxanthine]
susceptibility of cells to 6-thioxanthine selection (optical density at 590 nm): considerably more susceptible

Reference: US20090247455A1, “Isolation of Inhibitors of IRES-Mediated Translation” (priority 2005, published 2009)
